Assay results published in patent US12122783B2, “Stable salt of 5,10-methylene-(6R)-tetrahydrofolic acid” (MERCK & CIE, priority 2013, dated 2024).
Where a name gives a salt, the structure may show the parent alone.

How the values were obtained:
[1] = Suspension equilibration stability in solvents and mixtures; format: physicochemical
From the text: • (a) Suspension equilibration of (6R)-5,10-CH2-THF hemisulfate salt as starting material at temperatures other than room temperature in a variety of solvents and mixture are summarized in Table 10: […]

[2] = Stability in 85% ethanol at room temperature (XRPD); format: physicochemical; settings: 85% EtOH, stirred 5 h, filtered and dried
Procedure: Powder X-Ray Diffraction (Bruker D8 Advance): Copper Kα radiation, 40 kV/40 mA, LynxEye detector, Bragg-Brentano reflection geometry, 0.02° 2θ step size, 37 s step time, 2.5-50° 2θ range. Powder samples were measured in 0.1-mm or 0.5-mm deep silicon single-crystal sample holders. No special treatment was used in preparing the samples other than the application of slight pressure to get a flat surface. An ambient air atmosphere was used for all measurements, and the samples were rotated during the measurement. Absent any information to the contrary X-Ray Diffraction data is shown as reflection data.
• (b) Stability in 85% ethanol at room temperature
(6R)-5,10-CH2-THF hemisulfate salt (3.01 g) was dispersed in 100 ml 85% EtOH at room temperature and stirred for 5 h, then filtered and dried at 30° C. and 8 mbar for 12 hours (over night).

[3] = Long-term stability of hemisulfate salt stored in air, content by HPLC; format: physicochemical; settings: for (6R)-5,10-CH2-THF hemisulfate remaining: solid, air, 25 °C/60% relative humidity
Procedure: In order to determine the long-term stabilities of (6R)-5,10-CH2-THF hemisulfate salt, the compounds of the invention were stored in air at 25° C. and at 60% relative humidity. The content of (6R)-5,10-CH2-THF hemisulfate salt remaining was measured by HPLC at periodic intervals and is given by comparison with the initial value (% rel.).

[4] = Long-term stability of lyophilisates stored in air, content by HPLC; format: physicochemical; settings: room temperature, pharmaceutical composition such as a lyophilisate
Procedure: In order to determine the long-term stabilities of (6R)-5,10-CH2-THF hemisulfate salt as pharmaceutical compositions, more specifically as lyophilisates (as prepared according to e.g. Example 5), lyophilisates were stored in air at 25° C. and at 60% relative humidity. The content of (6R)-5,10-CH2-THF hemisulfate salt remaining was measured by HPLC at periodic intervals and is given by comparison with the initial value (% rel.).

[5] = Comparative long-term stability of sulfate salt, content by HPLC; format: physicochemical; settings: comparison of Tables 13 and 14 with Example 3
Procedure: In order to compare the long-term stabilities of (6R)-5,10-CH2-THF hemisulfate salt, the compounds of the invention, to the long-term stabilities of (6R)-5,10-CH2-THF sulfate salt prepared according to EP 0 537 492 B1, stability data for (6R)-5,10-CH2-THF sulfate salt has been generated at various temperatures and humidities. • (a) Stability of (6R)-5,10-CH2-THF sulfate
(6R)-5,10-CH2-THF sulfate salt was prepared according to literature procedures (EP 0 537 492 B1) and stored for 15 month at −20° C. Subsequently, samples of the product were stored at 5° C. resp. at 25° C. and 60% relative humidity resp. at 40° C. and 75% relative humidity. The content of (6R)-5,10-CH2-THF sulfate salt remaining in the sample was measured by HPLC at periodic intervals. The content of (6R)-5,10-CH2-THF sulfate was compared to the initial value at the time of preparation (% rel.).

rats = settings: rat, in vivo, 100 mg/kg/day
dogs = settings: dog, in vivo, 50 mg/kg/day
patients = test: Clinical safety data in patients; format: in vivo; settings: doses of up to 200 mg/m^2
[6] = Phase I/II study ISO-CC-002, pharmacokinetics/pharmacodynamics versus Levoleucovorin in tumor tissue, adjacent mucosa and blood plasma; format: in vivo; settings: colon cancer patients
Procedure: (b) In a single-blinded, randomized phase I/II study (ISO-CC-002) performed on 32 patients diagnosed with colon cancer the pharmacokinetic and pharmacodynamic properties of (6R)-5,10-CH2-THF hemisulfate compared to Levoleucovorin in tumor tissue, adjacent mucosa and blood plasma were investigated. The study was performed at the Sahlgrenska University Hospital in Göteborg, Sweden. […] The concentrations of methylenetetrahydrofolate and tetrahydrofolate in both tumor and adjacent mucosa were also much higher after administration of (6R)-5,10-CH2-THF hemisulfate than those obtained after administration of Levoleucovorin.

Nc1nc2c(c(=O)[nH]1)N1CN(c3ccc(C(=O)N[C@@H](CCC(=O)O)C(=O)O)cc3)C[C@H]1CN2 [(6R)-5,10-CH2-THF hemisulfate salt, 5,10-methylene-(6R)-tetrahydrofolic acid]
Observation (suspension equilibration) ([1]; 2-PrOH with ~2 mM L-ascorbic acid, 40 °C, 3 d): No change
Observation (suspension equilibration) ([1]; AcOH saturated with L-ascorbic acid, 50 °C, 1 d): No change
Observation (suspension equilibration) ([1]; AcOH saturated with L-ascorbic acid, 50 °C, 5 d): No change
Observation (suspension equilibration) ([1]; H2O, 5 °C, 6 d): No change
Observation (suspension equilibration) ([1]; MeCN saturated with L-ascorbic acid, 50 °C, 5 d): No change
Observation (suspension equilibration) ([1]; MeOH/formic acid 1:1, 50 °C, 2 h): No change
Observation (suspension equilibration) ([1]; PEG4500/EtOH 1:9 saturated with L-ascorbic acid, 50 °C, 7 d): No change
Observation (suspension equilibration) ([1]; THF with ~2 mM L-ascorbic acid, 40 °C, 3 d): No change
Observation (suspension equilibration) ([1]; formic acid/THF 1:3, 10-20 °C, 6 d): No change
X-ray pattern distinctive for crystal form Type 1 [2]: remained unchanged
Stability over a long period of time (conclusion from Table 11) ([3]; room temperature, pure compound): highly stable
(6R)-5,10-CH2-THF hemisulfate remaining ([3]; 0 months): 100.0 % rel.
(6R)-5,10-CH2-THF hemisulfate remaining ([3]; 3 months, listed as (6R)-5,10-CH2-THF hemisulfate (batch 1)): 99.7 % rel.
(6R)-5,10-CH2-THF hemisulfate remaining ([3]; 3 months, listed as (6R)-5,10-CH2-THF hemisulfate (batch 2)): 99.9 % rel.
(6R)-5,10-CH2-THF hemisulfate remaining ([3]; 3 months, listed as (6R)-5,10-CH2-THF hemisulfate (batch 3)): 99.5 % rel.
(6R)-5,10-CH2-THF hemisulfate remaining ([3]; 6 months): 99.5 % rel.
(6R)-5,10-CH2-THF hemisulfate remaining ([3]; 6 months, listed as (6R)-5,10-CH2-THF hemisulfate (batch 2)): 99.9 % rel.
(6R)-5,10-CH2-THF hemisulfate remaining ([3]; 9 months, listed as (6R)-5,10-CH2-THF hemisulfate (batch 1)): 99.6 % rel.
(6R)-5,10-CH2-THF hemisulfate remaining ([3]; 9 months, listed as (6R)-5,10-CH2-THF hemisulfate (batch 2)): 100.0 % rel.
(6R)-5,10-CH2-THF hemisulfate remaining ([3]; 9 months, listed as (6R)-5,10-CH2-THF hemisulfate (batch 3)): 99.4 % rel.
(6R)-5,10-CH2-THF hemisulfate remaining ([3]; 12 months, listed as (6R)-5,10-CH2-THF hemisulfate (batch 1)): 99.2 % rel.
(6R)-5,10-CH2-THF hemisulfate remaining ([3]; 12 months, listed as (6R)-5,10-CH2-THF hemisulfate (batch 2)): 99.7 % rel.
(6R)-5,10-CH2-THF hemisulfate remaining ([3]; 12 months, listed as (6R)-5,10-CH2-THF hemisulfate (batch 3)): 99.1 % rel.
(6R)-5,10-CH2-THF hemisulfate remaining ([3]; 18 months, listed as (6R)-5,10-CH2-THF hemisulfate (batch 1)): 99.2 % rel.
(6R)-5,10-CH2-THF hemisulfate remaining ([3]; 18 months, listed as (6R)-5,10-CH2-THF hemisulfate (batch 2)): 99.4 % rel.
(6R)-5,10-CH2-THF hemisulfate remaining ([3]; 18 months, listed as (6R)-5,10-CH2-THF hemisulfate (batch 3)): 99.0 % rel.
(6R)-5,10-CH2-THF hemisulfate remaining ([3]; 24 months, listed as (6R)-5,10-CH2-THF hemisulfate (batch 1)): 99.4 % rel.
(6R)-5,10-CH2-THF hemisulfate remaining ([3]; 24 months, listed as (6R)-5,10-CH2-THF hemisulfate (batch 2)): 99.4 % rel.
(6R)-5,10-CH2-THF hemisulfate remaining ([3]; 24 months, listed as (6R)-5,10-CH2-THF hemisulfate (batch 3)): 99.0 % rel.
(6R)-5,10-CH2-THF hemisulfate remaining ([3]; 36 months, listed as (6R)-5,10-CH2-THF hemisulfate (batch 1)): 98.5 % rel.
(6R)-5,10-CH2-THF hemisulfate remaining ([3]; 36 months, listed as (6R)-5,10-CH2-THF hemisulfate (batch 2)): 99.0 % rel.
Stability over a long period of time (conclusion from Table 12) [4]: highly stable
Stability over a long period of time compared to (6R)-5,10-CH2-THF sulfate [5]: much more stable
Safety at highest dose-level administered (rats): safe
Safety at highest dose-level administered (dogs): safe
Safety for patients (patients): safe
Exposure of methylenetetrahydrofolate compared to Levoleucovorin ([6]; blood plasma): substantially greater
Peak plasma concentrations of methylenetetrahydrofolate compared to Levoleucovorin ([6]; blood plasma): substantially greater
Concentration of methylenetetrahydrofolate compared to Levoleucovorin ([6]; both tumor and adjacent mucosa): much higher
Concentration of tetrahydrofolate compared to Levoleucovorin ([6]; both tumor and adjacent mucosa): much higher
